# Measured values taken from patent US10227357B2, “Compounds and methods for kinase modulation, and indications therefor” (Plexxikon Inc., priority 2012, dated 2019).
# Experiments:
# [1] = molecular target: T1, c-kit kinase (Homo sapiens, UniProt P10721); experiment: c-Kit biochemical assay, AlphaScreen, 10 μM ATP; conditions: c-kit biochemical inhibitory activity; read-out: Biochemical activity (IC50 μM) Kit
# T1 construct: The c-kit (or kinase domain thereof) is an active kinase in AlphaScreen; poly-Histidine tag (in-house protein only) (cleaved yes); host or cells: E. coli BL21(DE3)RIL, co-expressed with PTP1B
# T1 sequence (P10721 26-976): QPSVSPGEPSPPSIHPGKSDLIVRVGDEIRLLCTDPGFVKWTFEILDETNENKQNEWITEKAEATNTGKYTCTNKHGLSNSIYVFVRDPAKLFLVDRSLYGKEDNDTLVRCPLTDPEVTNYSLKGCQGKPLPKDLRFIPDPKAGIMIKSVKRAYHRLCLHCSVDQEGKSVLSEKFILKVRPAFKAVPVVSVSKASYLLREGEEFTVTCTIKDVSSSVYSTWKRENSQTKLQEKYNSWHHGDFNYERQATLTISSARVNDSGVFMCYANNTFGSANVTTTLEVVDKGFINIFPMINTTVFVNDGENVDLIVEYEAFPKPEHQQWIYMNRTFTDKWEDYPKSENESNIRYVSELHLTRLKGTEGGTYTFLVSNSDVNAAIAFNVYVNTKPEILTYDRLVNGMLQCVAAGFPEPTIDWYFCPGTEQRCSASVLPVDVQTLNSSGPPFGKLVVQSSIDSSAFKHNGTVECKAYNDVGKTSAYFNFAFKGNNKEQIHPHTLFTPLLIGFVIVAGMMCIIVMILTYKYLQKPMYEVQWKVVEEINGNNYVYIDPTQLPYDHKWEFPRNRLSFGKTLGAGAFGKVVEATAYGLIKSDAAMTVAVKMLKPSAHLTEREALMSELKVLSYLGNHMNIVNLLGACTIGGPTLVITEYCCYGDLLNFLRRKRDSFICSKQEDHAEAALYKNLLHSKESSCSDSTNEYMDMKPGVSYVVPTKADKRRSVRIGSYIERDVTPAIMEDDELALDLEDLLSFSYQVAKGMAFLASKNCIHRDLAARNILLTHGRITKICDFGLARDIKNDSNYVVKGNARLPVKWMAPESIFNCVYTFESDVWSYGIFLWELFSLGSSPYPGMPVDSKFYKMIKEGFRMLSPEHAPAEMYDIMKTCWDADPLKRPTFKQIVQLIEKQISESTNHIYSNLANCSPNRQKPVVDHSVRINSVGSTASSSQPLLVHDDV
# Summary of the method: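 His-tagged c-Kit expressed in E. coli with co-expressed PTP1B (dephosphorylated), tag removed; 0.1 ng per reaction with biotinylated-peptide substrate in 50 mM HEPES pH 7.2, 5 mM MgCl2, 5 mM MnCl2, 5% DMSO, 10 μM ATP, 1 h at room temperature. Phosphorylation detected by AlphaScreen (streptavidin donor, PY20 acceptor beads); IC50 from 8-point 1:3 dilution series.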
# [2] = molecular target: T2, c-kit mutant D816V (Homo sapiens, UniProt P10721, D816V/DEL694-753); experiment: c-Kit mutant D816V biochemical assay, AlphaScreen; conditions: c-kit D816V biochemical inhibitory activity; read-out: Biochemical activity (IC50 μM) Kit D816V
# T2 construct: residues 551-934, kinase insertion domain residues 694-753 deleted; 6x-histidine (N); made in house; host or cells: E. coli Arctic Express (DE3) RIL (Stratagene)
# T2 sequence (P10721 with tags, fused parts or gaps DEL694-753/D816V): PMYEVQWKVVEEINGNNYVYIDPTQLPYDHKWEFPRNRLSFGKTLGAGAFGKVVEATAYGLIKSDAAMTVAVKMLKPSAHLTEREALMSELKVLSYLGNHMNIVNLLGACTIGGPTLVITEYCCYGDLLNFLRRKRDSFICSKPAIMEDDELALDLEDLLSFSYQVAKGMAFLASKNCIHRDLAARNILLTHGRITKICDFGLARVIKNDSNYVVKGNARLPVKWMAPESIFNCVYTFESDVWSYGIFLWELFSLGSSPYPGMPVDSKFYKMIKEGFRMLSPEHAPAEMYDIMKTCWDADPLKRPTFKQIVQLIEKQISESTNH
# Summary of the method: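 Eight-point, threefold compound series incubated 30 min at room temperature with E. coli-produced D816V kinase, 10 μM ATP, Mg2+/Mn2+ HEPES buffer pH 7.2 and 5% DMSO. After EDTA stop, streptavidin and anti-phosphotyrosine (PY20) AlphaScreen beads gave the read-out, and IC50 was fitted from the concentration–signal curve.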
SMILES,IC50 [1] [µM],IC50 [2] [µM]
"O=S(=O)(NCc1ccc(F)cc1)c1ccc(-c2ncnc3[nH]c(-c4ccc(F)cc4)cc23)c(F)c1 [P-0354, 3-fluoro-N-[(4-fluorophenyl)methyl]-4-[6-(4-fluorophenyl)-7H-pyrrolo[2,3-d]pyrimidin-4-yl]benzenesulfonamide]",10 to 200,0.0001 to 1
"Cc1cc2c(-c3ccc(NS(=O)(=O)c4cccc(Cl)c4)cc3F)ncnc2[nH]1 [P-0357, 3-chloro-N-[3-fluoro-4-(6-methyl-7H-pyrrolo[2,3-d]pyrimidin-4-yl)phenyl]benzenesulfonamide]",1 to 10,1 to 10
"Cc1cc2c(-c3ccc(NS(=O)(=O)c4cccc(F)c4)cc3F)ncnc2[nH]1 [P-0358, 3-fluoro-N-[3-fluoro-4-(6-methyl-7H-pyrrolo[2,3-d]pyrimidin-4-yl)phenyl]benzenesulfonamide]",1 to 10,1 to 10
"Cc1cc2c(-c3ccc(NS(=O)(=O)c4ccc(OC(F)F)cc4)c(F)c3)ncnc2[nH]1 [P-0360, 4-(difluoromethoxy)-N-[2-fluoro-4-(6-methyl-7H-pyrrolo[2,3-d]pyrimidin-4-yl)phenyl]benzenesulfonamide]",1 to 10,10 to 200
"Cc1cc2c(-c3ccc(NS(=O)(=O)c4ccc(Cl)cc4F)c(F)c3)ncnc2[nH]1 [P-0361, 4-chloro-2-fluoro-N-[2-fluoro-4-(6-methyl-7H-pyrrolo[2,3-d]pyrimidin-4-yl)phenyl]benzenesulfonamide]",0.0001 to 1,1 to 10
"Cc1cc2c(-c3ccc(NS(=O)(=O)c4ccc(F)cc4)cc3F)ncnc2[nH]1 [P-0362, 4-fluoro-N-[3-fluoro-4-(6-methyl-7H-pyrrolo[2,3-d]pyrimidin-4-yl)phenyl]benzenesulfonamide]",1 to 10,0.0001 to 1
"COc1ccc(S(=O)(=O)Nc2ccc(-c3ncnc4[nH]c(C)cc34)c(F)c2)cc1 [P-0363, N-[3-fluoro-4-(6-methyl-7H-pyrrolo[2,3-d]pyrimidin-4-yl)phenyl]-4-methoxy-benzenesulfonamide]",1 to 10,1 to 10
"Cc1cc2c(-c3ccc(NS(=O)(=O)c4cccc(Cl)c4F)cc3F)ncnc2[nH]1 [P-0364, 3-chloro-2-fluoro-N-[3-fluoro-4-(6-methyl-7H-pyrrolo[2,3-d]pyrimidin-4-yl)phenyl]benzenesulfonamide]",10 to 200,10 to 200
"Cc1cc2c(-c3ccc(NS(=O)(=O)c4ccc(C)c(F)c4)cc3F)ncnc2[nH]1 [P-0365, 3-fluoro-N-[3-fluoro-4-(6-methyl-7H-pyrrolo[2,3-d]pyrimidin-4-yl)phenyl]-4-methyl-benzenesulfonamide]",10 to 200,1 to 10
"Cc1cc2c(-c3ccc(NS(=O)(=O)c4ccc(OC(F)F)cc4)cc3F)ncnc2[nH]1 [P-0366, 4-(difluoromethoxy)-N-[3-fluoro-4-(6-methyl-7H-pyrrolo[2,3-d]pyrimidin-4-yl)phenyl]benzenesulfonamide]",1 to 10,1 to 10
"[2H]C([2H])([2H])S(=O)(=O)Nc1ccc(-c2ncnc3[nH]c(-c4ccc(F)cc4)cc23)cc1F [P-0367, 1,1,1-trideuterio-N-[2-fluoro-4-[6-(4-fluorophenyl)-7H-pyrrolo[2,3-d]pyrimidin-4-yl]phenyl]methanesulfonamide]",10 to 200,0.0001 to 1
"[2H]C([2H])([2H])S(=O)(=O)Nc1ccc(-c2ncnc3[nH]c(-c4ccc(F)cc4)cc23)c(F)c1 [P-0368, 1,1,1-trideuterio-N-[3-fluoro-4-[6-(4-fluorophenyl)-7H-pyrrolo[2,3-d]pyrimidin-4-yl]phenyl]methanesulfonamide]",0.0001 to 1,0.0001 to 1
"O=S(=O)(NCC1CC1)c1ccc(-c2ncnc3[nH]c(-c4ccc(F)cc4)cc23)c(F)c1 [P-0369, N-(cyclopropylmethyl)-3-fluoro-4-[6-(4-fluorophenyl)-7H-pyrrolo[2,3-d]pyrimidin-4-yl]benzenesulfonamide]",10 to 200,1 to 10
"Cc1cc2c(-c3ccc(NS(C)(=O)=O)cc3)ncnc2[nH]1 [P-0379, N-[4-(6-methyl-7H-pyrrolo[2,3-d]pyrimidin-4-yl)phenyl]methanesulfonamide]",10 to 200,1 to 10
"CCS(=O)(=O)Nc1ccc(-c2ncnc3[nH]c(-c4ccc(F)cc4)cc23)c(F)c1 [P-0381, N-[3-fluoro-4-[6-(4-fluorophenyl)-7H-pyrrolo[2,3-d]pyrimidin-4-yl]phenyl]ethanesulfonamide]",0.0001 to 1,0.0001 to 1
"CS(=O)(=O)Nc1ccc(-c2cc3c(-c4ccc(NS(C)(=O)=O)cc4F)ncnc3[nH]2)c(F)c1 [P-0382, N-[3-fluoro-4-[4-[2-fluoro-4-(methanesulfonamido)phenyl]-7H-pyrrolo[2,3-d]pyrimidin-6-yl]phenyl]methanesulfonamide]",0.0001 to 1,0.0001 to 1
"O=S(=O)(Nc1ccc(-c2cc3c(-c4ccc(NS(=O)(=O)C5CC5)cc4F)ncnc3[nH]2)c(F)c1)C1CC1 [P-0387, N-[4-[4-[4-(cyclopropylsulfonylamino)-2-fluoro-phenyl]-7H-pyrrolo[2,3-d]pyrimidin-6-yl]-3-fluoro-phenyl]cyclopropanesulfonamide]",1 to 10,0.0001 to 1
"CCCCS(=O)(=O)Nc1ccc(-c2cc3c(-c4ccc(NS(=O)(=O)CCCC)cc4)ncnc3[nH]2)cc1 [P-0388, N-[4-[4-[4-(butylsulfonylamino)phenyl]-7H-pyrrolo[2,3-d]pyrimidin-6-yl]phenyl]butane-1-sulfonamide]",10 to 200,0.0001 to 1
"O=S(=O)(Nc1ccc(-c2cc3c(-c4ccc(NS(=O)(=O)C5CC5)cc4)ncnc3[nH]2)cc1)C1CC1 [P-0389, N-[4-[4-[4-(cyclopropylsulfonylamino)phenyl]-7H-pyrrolo[2,3-d]pyrimidin-6-yl]phenyl]cyclopropanesulfonamide]",1 to 10,0.0001 to 1
"Cc1ccc(S(=O)(=O)Nc2ccc(-c3ncnc4[nH]c(C)cc34)cc2)cc1 [P-0390, 4-methyl-N-[4-(6-methyl-7H-pyrrolo[2,3-d]pyrimidin-4-yl)phenyl]benzenesulfonamide]",1 to 10,0.0001 to 1
"O=S(=O)(Nc1ccc(-c2ncnc3[nH]c(-c4ccc(F)cc4)cc23)c(F)c1)c1ccc(Cl)cc1 [P-0396, 4-chloro-N-[3-fluoro-4-[6-(4-fluorophenyl)-7H-pyrrolo[2,3-d]pyrimidin-4-yl]phenyl]benzenesulfonamide]",10 to 200,0.0001 to 1
"CCCS(=O)(=O)Nc1ccc(-c2ncnc3[nH]c(-c4ccc(F)cc4)cc23)c(F)c1 [P-0397, N-[3-fluoro-4-[6-(4-fluorophenyl)-7H-pyrrolo[2,3-d]pyrimidin-4-yl]phenyl]propane-1-sulfonamide]",1 to 10,0.0001 to 1
"CS(=O)(=O)Nc1ccc(-c2ncnc3[nH]c(-c4ccc(F)cc4)cc23)c(F)c1 [P-0398, N-[3-fluoro-4-[6-(4-fluorophenyl)-7H-pyrrolo[2,3-d]pyrimidin-4-yl]phenyl]methanesulfonamide]",0.0001 to 1,0.0001 to 1
"CS(=O)(=O)Nc1ccc(-c2ncnc3[nH]c(-c4ccc(F)cc4)cc23)cc1F [P-0399, N-[2-fluoro-4-[6-(4-fluorophenyl)-7H-pyrrolo[2,3-d]pyrimidin-4-yl]phenyl]methanesulfonamide]",0.0001 to 1,0.0001 to 1
"O=S(=O)(Nc1ccc(-c2ncnc3[nH]c(-c4ccc(F)cc4)cc23)c(F)c1)C1CC1 [P-0401, N-[3-fluoro-4-[6-(4-fluorophenyl)-7H-pyrrolo[2,3-d]pyrimidin-4-yl]phenyl]cyclopropanesulfonamide]",10 to 200,0.0001 to 1
"COc1ccc(S(=O)(=O)Nc2ccc(-c3ncnc4[nH]c(-c5ccc(F)cc5)cc34)c(F)c2)cc1 [P-0402, N-[3-fluoro-4-[6-(4-fluorophenyl)-7H-pyrrolo[2,3-d]pyrimidin-4-yl]phenyl]-4-methoxy-benzenesulfonamide]",1 to 10,0.0001 to 1
"CCCS(=O)(=O)Nc1ccc(-c2ncnc3[nH]c(-c4ccc(F)cc4)cc23)cc1F [P-0403, N-[2-fluoro-4-[6-(4-fluorophenyl)-7H-pyrrolo[2,3-d]pyrimidin-4-yl]phenyl]propane-1-sulfonamide]",0.0001 to 1,0.0001 to 1
"O=S(=O)(Nc1ccc(-c2ncnc3[nH]c(-c4ccc(F)cc4)cc23)cc1)c1ccc(F)cc1 [P-0404, 4-fluoro-N-[4-[6-(4-fluorophenyl)-7H-pyrrolo[2,3-d]pyrimidin-4-yl]phenyl]benzenesulfonamide]",0.0001 to 1,0.0001 to 1
"CCS(=O)(=O)Nc1cccc(-c2ncnc3[nH]c(-c4ccc(F)cc4)cc23)c1 [P-0407, N-[3-[6-(4-fluorophenyl)-7H-pyrrolo[2,3-d]pyrimidin-4-yl]phenyl]ethanesulfonamide]",1 to 10,1 to 10
"O=S(=O)(Nc1ccc(-c2ncnc3[nH]c(-c4ccc(F)cc4)cc23)cc1F)c1ccc(F)cc1 [P-0408, 4-fluoro-N-[2-fluoro-4-[6-(4-fluorophenyl)-7H-pyrrolo[2,3-d]pyrimidin-4-yl]phenyl]benzenesulfonamide]",10 to 200,1 to 10
